From ChEMBL document CHEMBL5223063, “Recent advances in urea- and thiourea-containing compounds: focus on innovative approaches in medicinal chemistry and organic synthesis” (RSC Med Chem, 2021)

Assays:
[1] = Induction of anion transport in NaCl loaded POPC liposomes assessed transmembrane permeability by measuring chloride efflux by ion selective electrode
[2] = Dissociation constant, pKa of compound; format: physicochemical
[3] = 1-Octanol/phosphate buffer partition coefficient, logP of the compound at pH 7.40; format: physicochemical; settings: pH 7.4
[4] = Permeability coefficient of the compound in human Caco-2 cells; format: ADME, cell-based; settings: read-out: Kp
[5] = Oral bioavailability in rat; format: ADME, organism-based; settings: in vivo

| Compound | EC50 [1] [mol%] | logD [3] | other results |
| --- | --- | --- | --- |
| FC(F)(F)c1cc(NC(=S)Nc2cc(C(F)(F)F)cc(C(F)(F)F)c2)cc(C(F)(F)F)c1 | 0.16 | – | – |
| Cc1cccc(Nc2ccncc2S(=O)(=O)NC(=NC#N)NC(C)C)c1 | – | 0.86 | pKa [2]: 6 |
| Cc1cccc(Nc2ccncc2S(=O)(=O)NC(=S)NC(C)C)c1 | – | 0.61 | – |
| COC(=O)C1=C(C)NC(C)=C(C(=O)OC)C1c1cccc(N/C(=N/C#N)NCCCN2CCC(c3cccc(OC)c3)CC2)c1 | – | – | Papp [4]: 4.3 ×10⁻⁶ cm/s |
| COC(=O)C1=C(C)NC(C)=C(C(=O)OC)C1c1cccc(NC(=O)NCCCN2CCC(c3cccc(OC)c3)CC2)c1 | – | – | bioavailability [5]: 0.1%; Papp [4]: 1.9 ×10⁻⁶ cm/s |

Now from value to compound, other results behind:

| EC50 [1] [mol%] | logD [3] | Compound | other results |
| --- | --- | --- | --- |
| 0.01 | – | O=c1c(Nc2cc(C(F)(F)F)cc(C(F)(F)F)c2)c(Nc2cc(C(F)(F)F)cc(C(F)(F)F)c2)c1=O | – |
| – | 0.45 | Cc1cccc(Nc2ccncc2S(=O)(=O)NC(=O)NC(C)C)c1 [TORSEMIDE] | pKa [2]: 6.68 |
| 0.3 | – | O=C(Nc1cc(C(F)(F)F)cc(C(F)(F)F)c1)Nc1cc(C(F)(F)F)cc(C(F)(F)F)c1 | – |
| – | 1.12 | Cc1cccc(Nc2ccncc2S(=O)(=O)N/C(=C/[N+](=O)[O-])NC(C)C)c1 | – |
